Source: patent US9061015B2, “Stable solid dispersion of a derivative of vinca alkaloid and process for manufacturing it” (PIERRE FABRE MEDICAMENT, priority 2004, dated 2015)

Columns and labels:
[1] = Physicochemical stability on storage at 25° C./60% RH: variation of the content of impurities compared with t0; conditions: after 6 months 25° C./60% RH compared with t0
Procedure: Variation of the content of impurities (in % relative) after 6 months 25° C./60% RH compared with t0.
Other hydrophilic polymers such as polyethyleneglycols were tested.

[2] = Required storage temperature (stability); assay type: physicochemical; conditions: regardless of form (amorphous or crystalline) and degree of division

Structure (SMILES): CCC1=C[C@@H]2CN(C1)Cc1c([nH]c3ccccc13)[C@@](C(=O)OC)(c1cc3c(cc1OC)N(C)[C@H]1[C@@](O)(C(=O)OC)[C@H](OC(C)=O)[C@]4(CC)C=CCN5CC[C@]31[C@@H]54)C2 [Vinorelbine ditartrate, vinorelbine ditartrate]
- 4-0-deacetylvinorelbine impurity, variation of the content [1]: +0.05 % relative
- 6′-N-methylvinorelbine impurity, variation of the content [1]: +0.05 % relative
- 6′-N-oxyvinorelbine impurity, variation of the content [1]: +0.37 % relative
- S/D6 impurity, variation of the content [1]: +1.02 % relative
- Total impurities, variation of the content [1]: +1.87 % relative
- temperature at which it must be kept [2]: below −15 °C
